# Results: ChEMBL document CHEMBL1201862, “PubChem BioAssay data set” (2004)
# Active and inactive are the calls of the source.
# Columns and labels:
# [1] = LGR2 antagonists, dose response, cell-based, HEK293, CRE-luciferase reporter, cherry pick, set 2 (AID 743343); type: functional;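 note: transfected cells were stimulated with diluted bursicon conditioned medium after compound addition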
# [2] = HepG2 cell cytotoxicity, dose response, cytotoxicity control, plate reader, cherry-pick, antagonist series (AID 743416); type: functional, cell-based
# [3] = cytotoxicity in A549 cells, dose response, cytotoxicity control, cell-based, cherry-picked samples (AID 1053184); type: functional
# [4] = cytotoxicity in HEK293 cells, dose response, cytotoxicity control, cell-based, cherry-picked samples (AID 1053185); type: functional
# [5] = HEK293 cell cytotoxicity, dose response, cytotoxicity control, plate reader, cherry-picked samples (AID 743446); type: functional, cell-based
# [6] = cytotoxicity in OVCAR8 ovarian cancer cells, dose response, PAX8 project, cell-based, plate reader, dry powder samples (AID 743197); type: functional; details: OVCAR-8
# Paired box protein Pax-8 = Paired box protein Pax-8 (Homo sapiens, UniProt Q06710); experiment: inhibitors of PAX8-driven TPO luciferase reporter, dose response, RMG-I cells, cherry-pick (AID 687027); type: functional, cell-based;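 note: luciferase reporter driven by Pax8 target thyroperoxidase promoter measured by SteadyGlo luminescence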
# Paired box protein Pax-8, sequence (Q06710 whole entry): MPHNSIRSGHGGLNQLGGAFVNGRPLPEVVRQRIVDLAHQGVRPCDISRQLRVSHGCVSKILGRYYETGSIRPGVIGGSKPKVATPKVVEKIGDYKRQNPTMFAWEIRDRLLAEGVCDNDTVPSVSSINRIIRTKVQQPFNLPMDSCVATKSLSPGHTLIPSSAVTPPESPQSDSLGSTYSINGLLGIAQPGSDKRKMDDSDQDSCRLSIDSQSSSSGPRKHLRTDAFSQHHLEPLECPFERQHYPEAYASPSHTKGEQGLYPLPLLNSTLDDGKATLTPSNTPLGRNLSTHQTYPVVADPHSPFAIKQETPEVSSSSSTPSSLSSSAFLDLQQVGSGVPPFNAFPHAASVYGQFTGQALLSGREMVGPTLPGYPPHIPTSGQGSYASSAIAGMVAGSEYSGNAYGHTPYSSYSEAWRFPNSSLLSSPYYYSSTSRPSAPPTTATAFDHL
# [7] = IGROV1 ovarian cancer cell cytotoxicity, dose response, PAX8 inhibitor project, plate reader, dry powder samples (AID 743043); type: functional, cell-based; details: IGROV-1
# [8] = cytotoxicity in HepG2 cells, dose response, cytotoxicity control, cell-based, cherry-picked samples (AID 1053183); type: functional
# [9] = A549 cell cytotoxicity, dose response, cytotoxicity control, plate reader, cherry-pick, antagonist series (AID 743412); type: functional, cell-based
# [10] = IOSE-T80 ovarian epithelial cell cytotoxicity, dose response, cytotoxicity control for PAX8 inhibitor project, plate reader, dry powder samples (AID 743045); type: functional, cell-based
# [11] = NIH:OVCAR-3 ovarian cancer cell cytotoxicity, dose response, PAX8 inhibitor project, plate reader, dry powder samples (AID 743044); type: functional, cell-based
# [12] = MC4R antagonists, dose response, counter-screen for LGR2 antagonist project, cell-based, plate reader, cherry pick (AID 743444); type: functional;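 note: transfected HEK 293 cells stimulated with alpha-MSH peptide; potency of inhibitors of the alpha-MSH evoked signal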
# [13] = molecular target: T1, Endoribonuclease toxin MazF (Escherichia coli K-12, UniProt P0AE70); experiment: fluorescent RNA oligo signal without MazF, dose response, counter-screen for MazEF activator project, biochemical, fluorescence, single-stranded RNase substrate (AID 588502); type: functional
# T1 sequence (P0AE70 whole entry): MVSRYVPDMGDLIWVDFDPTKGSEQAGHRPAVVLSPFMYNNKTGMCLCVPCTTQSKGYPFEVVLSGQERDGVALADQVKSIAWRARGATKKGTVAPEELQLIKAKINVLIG
# cells [14] = experiment: cells
# [15] = molecular target: T1, Endoribonuclease toxin MazF; experiment: MazF toxin RNase activators, dose response, biochemical, fluorescence, single-stranded RNA substrate, uHTS hits (AID 588481); type: functional
# HepG2 = experiment: HepG2 cell cytotoxicity, dose response, cytotoxicity control, cherry-picks, set 2 (AID 687002); type: functional, cell-based; details: Homo sapiens
# [16] = molecular target: Metabotropic glutamate receptor 3 (Rattus norvegicus, UniProt P31422); experiment: mGlu3 negative allosteric modulator potency, dose response, HEK/GIRK cells, thallium flux, rat (AID 651839); type: functional
# Metabotropic glutamate receptor 3, sequence (P31422 whole entry): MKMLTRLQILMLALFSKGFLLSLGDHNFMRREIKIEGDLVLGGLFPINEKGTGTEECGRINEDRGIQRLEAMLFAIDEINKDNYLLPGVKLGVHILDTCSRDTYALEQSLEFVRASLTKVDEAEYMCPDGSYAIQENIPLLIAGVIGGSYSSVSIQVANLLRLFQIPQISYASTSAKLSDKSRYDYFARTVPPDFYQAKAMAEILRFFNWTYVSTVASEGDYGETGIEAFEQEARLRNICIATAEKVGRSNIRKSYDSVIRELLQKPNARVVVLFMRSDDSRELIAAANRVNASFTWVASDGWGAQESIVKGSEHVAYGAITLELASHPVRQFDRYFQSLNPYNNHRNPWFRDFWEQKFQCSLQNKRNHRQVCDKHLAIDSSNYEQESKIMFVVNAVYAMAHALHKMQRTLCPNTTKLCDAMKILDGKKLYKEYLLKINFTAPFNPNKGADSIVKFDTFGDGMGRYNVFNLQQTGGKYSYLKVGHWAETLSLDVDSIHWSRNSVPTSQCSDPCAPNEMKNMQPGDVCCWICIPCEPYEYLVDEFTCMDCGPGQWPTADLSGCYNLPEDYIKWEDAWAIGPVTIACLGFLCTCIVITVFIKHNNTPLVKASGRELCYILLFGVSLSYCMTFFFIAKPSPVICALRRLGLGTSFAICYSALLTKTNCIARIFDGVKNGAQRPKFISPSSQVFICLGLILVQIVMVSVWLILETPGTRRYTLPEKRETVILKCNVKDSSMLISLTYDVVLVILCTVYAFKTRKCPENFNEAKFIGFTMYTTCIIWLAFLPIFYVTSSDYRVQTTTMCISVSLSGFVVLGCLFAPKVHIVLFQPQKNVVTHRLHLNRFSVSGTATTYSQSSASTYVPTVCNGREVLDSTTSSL
# [17] = molecular target: T2, Scavenger receptor class B member 1 (Mus musculus, UniProt Q61009); experiment: inhibitors of SR-BI-mediated HDL uptake, dose response, cell-based, ldlA[mSR-BI] CHO, DiI fluorescence, dry powder, set 10 (AID 624029); type: functional
# T2 sequence (Q61009 whole entry): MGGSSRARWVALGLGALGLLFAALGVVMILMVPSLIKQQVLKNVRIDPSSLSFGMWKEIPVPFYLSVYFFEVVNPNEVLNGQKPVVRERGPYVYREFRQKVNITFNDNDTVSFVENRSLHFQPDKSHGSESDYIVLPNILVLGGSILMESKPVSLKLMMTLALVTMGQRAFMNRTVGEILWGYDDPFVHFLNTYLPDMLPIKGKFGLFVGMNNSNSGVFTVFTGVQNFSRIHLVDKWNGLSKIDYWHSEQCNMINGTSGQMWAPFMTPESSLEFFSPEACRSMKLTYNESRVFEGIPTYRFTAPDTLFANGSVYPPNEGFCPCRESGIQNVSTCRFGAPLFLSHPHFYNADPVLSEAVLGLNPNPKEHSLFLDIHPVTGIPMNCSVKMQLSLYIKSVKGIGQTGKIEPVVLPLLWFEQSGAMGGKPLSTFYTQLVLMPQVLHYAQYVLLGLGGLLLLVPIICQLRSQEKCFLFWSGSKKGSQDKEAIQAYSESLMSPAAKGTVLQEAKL
# [18] = cytotoxicity in ldlA[mSR-BI] CHO cells, dose response, cytotoxicity control for SR-BI HDL uptake inhibitor project, cell-based, CellTiter-Glo, 24 h, powder samples, set 7 (AID 624026); type: functional
# [19] = CFTR ΔF508 corrector activity in bronchial cells, dose response, human bronchial epithelial cells, plate reader, cherry-pick, two tests (AID 743267); type: functional, cell-based
# cells [20] = details: A549
# [21] = inhibitors of HIV Env-driven cell fusion, dose response, cherry-pick (AID 652057); type: functional, cell-based
# cells [22] = details: HEK293
# [23] = HEK293 cell cytotoxicity, dose response, cytotoxicity control, cherry-picks, set 5 (AID 1053117); type: functional, cell-based
# [24] = A549 cell cytotoxicity, dose response, cytotoxicity control, cherry-picks, 26 µM top dose (AID 1053119); type: functional, cell-based
# [25] = HepG2 cell cytotoxicity, dose response, cytotoxicity control, cherry-picks, set 5 (AID 1053118); type: functional, cell-based
# [26] = Cytotoxicity screening for potential Inhibitors of Bacterial Capsule Biogenesis (4).; type: functional
# cells [27] = type: functional, cell-based
# [28] = molecular target: T3, Nuclear receptor subfamily 0 group B member 1 (Homo sapiens, UniProt P51843); type: functional, cell-based;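 note: HEK293T cells transfected with SF-1 and DAX-1 plus StAR promoter luciferase reporter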
# T3 sequence (P51843 whole entry): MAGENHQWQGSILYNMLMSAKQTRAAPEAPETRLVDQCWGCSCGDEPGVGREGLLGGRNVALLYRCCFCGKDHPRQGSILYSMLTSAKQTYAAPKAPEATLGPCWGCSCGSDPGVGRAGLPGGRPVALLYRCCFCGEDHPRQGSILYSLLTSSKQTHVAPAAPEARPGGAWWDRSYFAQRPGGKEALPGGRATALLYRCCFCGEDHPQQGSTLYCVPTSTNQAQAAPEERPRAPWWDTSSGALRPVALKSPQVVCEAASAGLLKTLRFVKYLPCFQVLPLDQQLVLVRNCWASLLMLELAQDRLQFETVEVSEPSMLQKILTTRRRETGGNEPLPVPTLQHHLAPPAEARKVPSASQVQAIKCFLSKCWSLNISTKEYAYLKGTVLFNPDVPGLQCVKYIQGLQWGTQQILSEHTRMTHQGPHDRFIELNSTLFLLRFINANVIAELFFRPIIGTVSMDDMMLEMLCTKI
compound,measurement,setting,value
Cc1ccccc1S(=O)(=O)N1C[C@@H]2N[C@H](C1)[C@H]2c1ccc(-c2cccc(C#N)c2)cc1,AC50,[1],14.8 µM (active)
same,AC50,[2],9.35 µM (active)
same,AC50,[3],36.5 µM (active)
same,AC50,[4],35.5 µM (active)
same,AC50,[5],20.4 µM (active)
same,AC50,[6],39.1 µM (active)
same,AC50,Paired box protein Pax-8,3.75 µM (active)
same,AC50,[7],20.5 µM (active)
same,AC50,[8],31.9 µM (active)
same,AC50,[9],7.87 µM (active)
same,AC50,[10],51.4 µM (active)
same,AC50,[11],21.7 µM (active)
same,AC50,[12],14.3 µM (active)
CCOC(=O)c1cc2c(=O)n3ccccc3nc2n(Cc2ccc(Cl)cc2)c1=N,EC50,[13],> 99 µM (inactive)
same,AC50,cells [14],1.99 µM (active)
same,EC50,[15],> 99 µM (inactive)
O=C(CSc1ncnc2c1cnn2-c1ccccc1)Nc1ccc2c(c1)OCO2,AC50,HepG2,14 µM (active)
COc1ccc(C#Cc2ccc(C(=O)N3CCC(CO)C3)cc2)c(F)c1 (stereo not given),IC50,[16],6.85 µM (active)
CC(C)NC(=O)Nc1ccc2c(c1)C(=O)N([C@@H](C)CO)C[C@H](C)[C@@H](CN(C)S(=O)(=O)c1ccc(Cl)cc1)O2,AC50,[17],> 70 µM (inactive)
same,AC50,[18],> 70 µM (inactive)
COc1cccc(-c2ccc([C@@H]3[C@@H]4CN(S(=O)(=O)c5cccc(OC)c5)C[C@H]3N4)cc2)c1,AC50,[19],13.5 µM (active)
C=CCN1C(=S)CC(c2ccccc2)=Nc2ccccc21,AC50,cells [20],> 52 µM (inactive)
same,AC50,[21],47.9 µM (active)
same,AC50,cells [22],> 52 µM (inactive)
O=C(Nc1ccc(Cl)cc1)N1C[C@H]2[C@@H](c3ccccc31)[C@H](CO)N2CC1CCCC1,AC50,[23],40.4 µM (active)
same,AC50,[24],47.5 µM (active)
same,AC50,[25],35.8 µM (active)
COc1cc(NC(=O)c2ccc3nc(N)sc3c2)ccn1,CC50,[26],172 µM (active)
Cc1ccc(NC(=O)c2ccc3snnc3c2)cc1C,IC50,cells [27],> 67.6 µM (inactive)
same,IC50,[28],> 67.6 µM (inactive)
